Experiment [1] deals with KRAS protein containing G12D mutation (Homo sapiens (Human), UniProt P01116, G12D). As to the kind of experiment: SOS-catalyzed nucleotide exchange assay (GNE), TR-FRET. The experiment is classed as biochemical. The settings on record: biotinylated KRAS G12D, SOS and GTP, 60-minute incubation. The protocol: Compounds are added to this complex and then after a 60-minute incubation time the mixture is treated with SOS and unlabeled GTP. Small molecule inhibitors stabilize the Bodipy-GDP complex whereas the untreated protein rapidly exchanges Bodipy-GDP for unlabeled GTP resulting in reduced TR-FRET signal.
Sequence of KRAS protein containing G12D mutation (P01116 other isoform, or with tags, fused parts or gaps G12D (already in the parent)): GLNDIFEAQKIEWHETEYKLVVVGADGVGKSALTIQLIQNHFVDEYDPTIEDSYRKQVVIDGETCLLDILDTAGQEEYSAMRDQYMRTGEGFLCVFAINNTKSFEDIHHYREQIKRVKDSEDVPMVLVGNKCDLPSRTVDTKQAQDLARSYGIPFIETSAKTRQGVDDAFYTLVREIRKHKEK
This solution is referred to as biotinylated KRAS G12D stock solution.
(In general: TR-FRET usually uses a lanthanide donor and a delayed reading to cut background.)

Experiment [2] has as its system AsPC-1 cells containing homozygous KRAS-G12D activating mutation. As to the kind of experiment: Cellular phospho-ERK assay (Examples 1a-106). As to conditions: AsPC-1 cells, 2 hours, ratio of p-Erk vs total Erk, read-out: IC50 (nM) pERK (Cell). In kind it is cell-based. An excerpt:
5% CO? overnight. […] Assay plates were read on a EnVision Multimode Plate Reader (PerkinElmer) and the ratio of p-Erk vs total Erk in each well was used as the final readout.

For experiment [3], the target named is KRAS G12D / Ras binding domain of C-RAF (Homo sapiens (Human), UniProt P01116, G12D). As to the kind of experiment: RAS:RAF-RBD binding assay (cRaf), TR-FRET. The settings on record: biotinylated KRAS G12D, GST-C-RAF RBD.
Sequence of KRAS G12D / Ras binding domain of C-RAF (P01116 other isoform, or with tags, fused parts or gaps G12D (already in the parent)): as above
Experimental: Compounds are added to KRAS and then after a 30-minute incubation time the RAF-RBD and detection antibodies are added. Small molecule inhibitors that block the interaction of c-RAF-RBD prevent generation of a TR-FRET signal.
Biotinylated KRAS G12D protein is diluted to 20 nM in assay buffer (20 mM HEPES pH 7.5, 150 mM sodium chloride, 10 mM magnesium chloride, and 0.01% Tween20).
Each test compound (10 mM stock in DMSO) is diluted in DMSO to make a 10-point, 3-fold dilution series in a 384-well low dead volume microplate (Labcyte, catalog #LP-0200).
Each well of the assay plate receives 5 μL of Biotinylated KRAS G12D assay solution and is incubated at room temperature for 30 minutes. Each well then receives 5 μL of 100 nM GST-C-RAF RBD protein and a 1:100 dilution of both anti-GST-d2 (Cisbio catalog #61GSTDLA) and Streptavidin-Tb cryptate (Cisbio catalog #610SATLA) in assay buffer and the plate is mixed and briefly centrifuged followed by a 60 minute incubation at room temperature.
The apparent effect as a function of compound concentration is fit to a four-parameter logistic equation.

Where two headings read alike, the source gives them in different places.

Broadly, the IC50 is the concentration needed to halve the response being measured. For `Cc1cc2[nH]ncc2c(-c2c(F)cc3c(N4C[C@H]5CC[C@@](C)(C4)N5)nc(OC[C@]4(CN(C)C)CC4(F)F)nc3c2F)c1C(F)(F)F` (single isomer, unassigned) [Ex 76a], the IC50 worked out at 12 nM in experiment [1], 593 nM in experiment [2] and 1810 nM in experiment [3] (IC50 (nM) (cRaf)).
Take `CN(C)CC1(COc2nc(N3CC4CCC(CC#N)(C3)N4)c3cc(Cl)c(-c4cc(O)cc5ccccc45)c(F)c3n2)CC1` (stereo not drawn) [Example 36, 2-(3-(6-chloro-2-((1-((dimethylamino)meth-yl)cyclopro-pyl)methoxy)-8-fluoro-7-(3-hydroxy-naphthalen-1-yl)quinazolin-4-yl)-3,8-diazabicyclo[3.2.1]oc-tan-1-yl)acetonitrile]: the IC50 was 4680 nM in experiment [1]; 46400 nM in experiment [2] (Homo sapiens, ASPC1, 2 h); 50000 nM in experiment [3] (IC50 (nM) (cRaf)).
Consider `CN(C)C[C@@]1(COc2nc(N3C[C@H]4CC[C@@](C)(C3)N4)c3cc(Cl)c(-c4c(F)cc(F)c5ccc(N)nc45)c(F)c3n2)CC1(F)F` (single isomer, unassigned) [92b], for which the IC50 in experiment [1] came out at 236 nM; in experiment [2], 5320 nM; in experiment [3] (IC50 (nM) (cRaf)), 9210 nM.
Regarding `COC1CC2CN(c3nc(OCC4(CN(C)C)CC4)nc4c(F)c(-c5cc(O)cc6ccccc56)c(F)cc34)CC1N2` (stereo not drawn) [Example 25, 4-(2-((1-((dimethyl-amino)methyl)cyclo-propyl)methoxy)-6,8-difluoro-4-(6-methoxy-3,8-diazabicyclo[3.2.1]oc-tan-3-yl)quinazolin-7-yl)naphthalen-2-ol], the IC50 in experiment [1] was 454 nM; in experiment [2] (Homo sapiens, ASPC1, 2 h) it was 7070 nM; in experiment [3] (IC50 (nM) (cRaf)) it was 20300 nM.
Take `Cc1cc2[nH]ncc2c(-c2c(F)cc3c(N4C[C@H]5CC[C@@H](C4)N5)nc(OCC4(CN(C)C)CC4)nc3c2F)c1Cl` [Example 65, 1-(1-(((4-((1R,5S)-3,8-diazabicyclo[3.2.1]octan-3-yl)-7-(5-chloro-6-methyl-1H-indazol-4-yl)-6,8-difluoroquinazolin-2-yl)oxy)methyl)cyclopropyl)-N,N-dimethylmethanamine]: the IC50 amounted to 272 nM in experiment [1]; 2840 nM in experiment [2] (Homo sapiens, ASPC1, 2 h); 45700 nM in experiment [3] (IC50 (nM) (cRaf)).
Regarding `Cc1cc2[nH]ncc2c(C2Cc3nc(OC[C@]4(CN(C)C)CC4(F)F)nc(N4C[C@H]5CC[C@@](C)(C4)N5)c3C(=O)O2)c1C(F)(F)F` (single isomer, unassigned) [Ex. 96b], the figures for the IC50 in experiment [1], in experiment [2] and in experiment [3] (IC50 (nM) (cRaf)) were 3.31 nM, 657 nM and 637 nM, respectively.
For the compound `COC1CC2CN(c3nc(OCC4(CN(C)C)CC4)nc4c(F)c(-c5cc(O)cc6ccccc56)c(F)cc34)CC1N2` [Example 24, 4-(2-((1-((dimethylamino)meth-yl)cyclopropyl)meth-oxy)-6,8-difluoro-4-(6-methoxy-3,8-di-azabicyclo[3.2.1]octan-3-yl)quinazolin-7-yl)naphthalen-2-olR,R,], the IC50 in experiment [1] worked out at 280 nM; in experiment [2], 7110 nM; in experiment [3] (read-out: IC50 (nM) (cRaf)) it was 10800 nM.
For `Cc1c(Cl)cc2[nH]nc(C)c2c1-c1c(F)cc2c(N3C[C@H]4CC[C@@](C)(C3)N4)nc(OCC3(CN(C)C)CC3(F)F)nc2c1F` (single isomer, unassigned) [Ex 68], the IC50 in experiment [1] was determined as 39.9 nM; in experiment [2] (Homo sapiens, ASPC1, 2 h) it was 2380 nM; in experiment [3] (IC50 (nM) (cRaf)) it was 3300 nM.
For `Cc1cc2[nH]nc(C)c2c(-c2c(F)cc3c(N4C[C@H]5CC[C@@](C)(C4)N5)nc(OCC4(CN5CC[C@@H](F)C5)CC4)nc3c2F)c1C` [Ex 85, 6,8-difluoro-2-((1-(((R)-3-fluoropyrrolidin-1-yl)methyl)cyclopropyl)methoxy)-4-((1S,5R)-1-methyl-3,8-diazabicyclo [3.2.1]octan-3-yl)-7-(3,5,6-trimethyl-1H-indazol-4-yl)quinazoline], the IC50 was determined as 255 nM in experiment [1]; 5620 nM in experiment [2] (Homo sapiens, ASPC1, 2 h); 18900 nM in experiment [3] (IC50 (nM) (cRaf)).
On the same counts, the results for `CN1C[C@H](F)C[C@H]1COc1nc(N2C[C@H]3CC[C@@](C)(C2)N3)c2cc(F)c(-c3cc(O)cc4ccccc34)c(F)c2n1` [Ex 70, 4-(6,8-difluoro-2-(((2S,4R)-4-fluoro-1-methylpyrrolidin-2-yl)methoxy)-4-((1S,5R)-1-methyl-3,8-diazabicyclo[3.2.1]octan-3-yl)quinazolin-7-yl)naphthalen-2-ol] are 43.5 nM, 2330 nM and 5390 nM.
As to `C[C@]12CC[C@H](CN(c3nc(OC[C@@]45CCCN4C[C@H](F)C5)nc4c(F)c(-c5cc(O)cc6cccc(Cl)c56)ncc34)C1)N2` [Ex. 99, 5-chloro-4-(8-fluoro-2-(((2R,7aS)-2-fluorotetrahydro-1H-pyrrolizin-7a(5H)-yl)methoxy)-4-((1S,5R)-1-methyl-3,8-diazabicyclo[3.2.1]octan-3-yl)pyrido[4,3-d]pyrimidin-7-yl)naphthalen-2-ol], the IC50 in experiment [1] was 2.46 nM; in experiment [2] (Homo sapiens, ASPC1, 2 h), 243 nM; in experiment [3] (read-out: IC50 (nM) (cRaf)), 57.5 nM.
For `CN(C)CC1(COc2nc(N3C[C@@H]4CC[C@H]3CN4)c3cc(F)c(-c4cc(O)cc5ccccc45)c(F)c3n2)CC1` [Example 7, 4-(4-((1S,4S)-2,5-diazabicyclo[2.2.2]octan-2-yl)-2-((1-((dimethylamino)methyl)cyclopropyl)methoxy)-6,8-difluoroquinazolin-7-yl)naphthalen-2-ol], the IC50 was 35.5 nM in experiment [1]; 5020 nM in experiment [2] (Homo sapiens, ASPC1, 2 h); 2990 nM in experiment [3] (IC50 (nM) (cRaf)).
Regarding `CN(C)C[C@@]1(COc2nc(N3C[C@H]4CC[C@@](C)(C3)N4)c3cc(F)c(-c4cc(O)cc5ccccc45)c(F)c3n2)CC1(F)F` [Ex 69, 4-(2-(((R)-1-((dimethylamino)methyl)-2,2-difluorocyclopropyl)methoxy)-6,8-difluoro-4-((1S,5R)-1-methyl-3,8-diazabicyclo[3.2.1]octan-3-yl)quinazolin-7-yl)naphthalen-2-ol], the IC50 came to 1.76 nM in experiment [1]; 275 nM in experiment [2] (Homo sapiens, ASPC1, 2 h); 194 nM in experiment [3] (IC50 (nM) (cRaf)).
`CN(C)CC1(COc2nc(N3CC4CCC(C3)N4)c3cc(Cl)c(-c4cc(O)c(F)c5ccccc45)c(F)c3n2)CC1` [Example 57, 4-(4-(3,8-diazabicyclo[3.2.1]octan-3-yl)-6-chloro-2-((1-((dimethylamino)methyl)cyclopropyl)methoxy)-8-fluoroquinazolin-7-yl)-1-fluoronaphthalen-2-ol]: the IC50 in experiment [1] is 404 nM; in experiment [2] (Homo sapiens, ASPC1, 2 h), 6850 nM; in experiment [3] (IC50 (nM) (cRaf)), 31500 nM.
With `CN(C)CC1(COc2nc(N3CC4CC(O)C(C3)N4)c3cc(Cl)c(-c4cc(O)cc5ccccc45)c(F)c3n2)CC1` (single isomer, unassigned) [Example 22b, 3-(6-chloro-2-((1-((dimethylamino)meth-yl)cyclo-propyl)methoxy)-8-fluoro-7-(3-hydroxy-naphthalen-1-yl)quinazolin-4-yl)-3,8-diazabicyclo[3.2.1]oc-tan-6-ol], the IC50 in experiment [1] came out at 78.9 nM; in experiment [2], 38300 nM; in experiment [3] (IC50 (nM) (cRaf)), 8450 nM.
In the case of `C[C@]12CC[C@H](CN(c3nc(OCC4(CN5CC[C@@H](F)C5)CC4)nc4c3CCN(c3cccc5cccc(Br)c35)C4)C1)N2` [Ex. 93, 7-(8-bromonaphthalen-1-yl)-2-((1-(((R)-3-fluoropyrrolidin-1-yl)methyl)cyclopropyl)methoxy)-4-((1S,5R)-1-methyl-3,8-diazabicyclo[3.2.1]octan-3-yl)-5,6,7,8-tetrahydropyrido[3.4-d]pyrimidine], the results for the IC50 in experiment [1], in experiment [2] and in experiment [3] (read-out: IC50 (nM) (cRaf)) were 437 nM, 7130 nM and 35300 nM, respectively.
Regarding `CN(C)CC1(COc2nc(N3C[C@H]4CC[C@@](C)(C3)N4)c3cc(F)c(-c4cc(O)cc5ccccc45)c(F)c3n2)CC1` [Example 21, 4-(2-((1-((dimethyl-amino)methyl)cyclo-propyl)methoxy)-6,8-difluoro-4-((1S,5R)-1-methyl-3,8-diazabicy-clo[3.2.1]octan-3-yl)quinazolin-7-yl)naphthalen-2-ol], the half-inhibitory concentration (IC50) was 14.4 nM in experiment [1]; 636 nM in experiment [2] (Homo sapiens, ASPC1, 2 h); 1980 nM in experiment [3] (IC50 (nM) (cRaf)).
Take `C#Cc1cccc2cc(O)cc(-c3c(F)cc4c(N5C[C@]6(C)CC[C@H]5CN6)nc(OC[C@@]56CCCN5C[C@H](F)C6)nc4c3F)c12` [compound 104, 4-(6,8-difluoro-2-(((2R,7aS)-2-fluorotetrahydro-1H-pyrrolizin-7a(5H)-yl)methoxy)-4-((1S,4S)-4-methyl-2,5-diazabicyclo[2.2.2]octan-2-yl)quinazolin-7-yl)-5-ethynylnaphthalen-2-ol]: the IC50 came out at 1.05 nM in experiment [1]; 11.8 nM in experiment [2] (Homo sapiens, ASPC1, 2 h); 5.93 nM in experiment [3] (IC50 (nM) (cRaf)).
On the same counts, the results for `Cc1cc2[nH]ncc2c(-c2c(F)cc3c(N4C[C@H]5CC[C@@](C)(C4)N5)nc(OC[C@]4(CN(C)C)CC4(F)F)nc3c2F)c1C` [Ex 82, 1-((1R)-1-(((7-(5,6-dimethyl-1H-indazol-4-yl)-6,8-difluoro-4-((1S,5R)-1-methyl-3,8-diazabicyclo[3.2.1]octan-3-yl)quinazolin-2-yl)oxy)methyl)-2,2-difluorocyclopropyl)-N,N-dimethylmethanamine] are 89.3 nM, 2200 nM and 14800 nM.

The values above are taken from patent publication US20240239788A1, “SMALL MOLECULE INHIBITORS OF KRAS G12D MUTANT” (Merck Sharp & Dohme LLC, priority 2021, published 2024).
